Article PMC2698131 (Journal of biomolecular screening, 2009)
Read-outs that look alike come from different tables or passages of the source.

Columns and labels:
[1] = target: T1, LARG-stimulated RhoA nucleotide binding (Homo sapiens, UniProt Q9NZN5); type: biochemical; settings: 20 minutes; for Hill Slope [TR-GTPγS]: BODIPY-TR-GTPγS fluorescence polarization dose-response; for IC50: BODIPY-TR-GTPγS 500 nM, LARG 100 nM, RhoA (C189S) 2 μM
T1 sequence (Q9NZN5 765-1138): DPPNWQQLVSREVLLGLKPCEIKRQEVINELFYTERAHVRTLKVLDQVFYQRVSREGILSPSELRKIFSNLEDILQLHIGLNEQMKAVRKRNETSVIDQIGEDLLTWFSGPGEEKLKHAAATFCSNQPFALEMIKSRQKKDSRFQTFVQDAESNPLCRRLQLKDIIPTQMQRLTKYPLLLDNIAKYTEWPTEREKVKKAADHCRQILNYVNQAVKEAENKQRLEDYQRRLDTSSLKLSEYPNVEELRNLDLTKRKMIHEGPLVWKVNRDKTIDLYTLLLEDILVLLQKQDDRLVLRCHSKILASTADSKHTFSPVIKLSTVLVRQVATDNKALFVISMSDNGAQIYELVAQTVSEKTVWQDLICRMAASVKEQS

[2] = target: T2, LARG-stimulated RhoA [35S] GTPγS binding (Homo sapiens, UniProt Q9NZN5); test: LARG-stimulated RhoA [35S] GTPγS guanine nucleotide binding assay; type: biochemical; settings: LARG 2 nM, RhoA (C189S) 500 nM, 25 minute time point
T2 sequence (Q9NZN5 765-1138): T1 sequence (Q9NZN5 765-1138)

Row | Compound | Hill Slope [TR-GTPγS] [1] | IC50 ([1]; IC50 (μM) [TR-GTPγS]) | IC50 ([1]; read-out: IC50 (μM) [TR-GTPγS]) | Hill Slope [GTPγS35] [2] | IC50 ([2]; read-out: IC50 (μM) [GTPγS35]) | IC50 ([2]; IC50 (μM) [GTPγS35])
1 | Nc1ccc(O)c(-c2nc3cc(N)ccc3s2)c1 [CCG-5849, 4-amino-2-(5-amino-1,3-benzothiazol-2-yl)phenol] | -1.6 | 10.7 µM |  |  |  | 
2 | O=c1oc2cc(O)ccc2cc1-c1csc(-c2ccc(-c3ccccc3)cc2)n1 [CCG-7167] | -1.8 |  | 65.1 µM | -2.2 | 4.2 µM | 
3 | N=C1S/C(=C\c2ccc(-c3ccccc3[N+](=O)[O-])o2)C(=O)N1c1ccc2c(c1)OCO2 [CCG-13528, (5Z)-3-(2H-1,3-benzodioxol-5-yl)-2-imino-5-{[5-(2-nitrophenyl)furan-2-yl]methylidene}-1,3-thiazolidin-4-one] | -3.4 | 39.8 µM |  | -1.8 |  | 4.6 µM
4 | Cc1cccc(NCC(=O)N/N=C\c2c(Br)cc(Br)c(O)c2Br)c1 [CCG-14113, (N′Z)-2-[(3-methylphenyl)amino]-N′-[(2,4,6-tribromo-3-hydroxyphenyl)methylidene]acetohydrazide] | -1.0 | 32.2 µM |  | -7.1 |  | 32.8 µM
5 | O=C1NC(=S)NC(=O)C1=Cc1ccc(-c2ccc(S(=O)(=O)Nc3nccs3)cc2)o1 [CCG-14631, 4-{5-[(4,6-dioxo-2-sulfanylidene-1,3-diazinan-5-ylidene)methyl]furan-2-yl}-N-(1,3-thiazol-2-yl)benzene-1-sulfonamide] | -0.7 | 3.1 µM |  | -1.1 |  | 7 µM
